Test results reported in PMC5053573, “Structure-Based Design of Tetrahydroisoquinoline-7-carboxamides as Selective Discoidin Domain Receptor 1 (DDR1) Inhibitors” (Journal of Medicinal Chemistry, 2016).

How the values were obtained:
Test in all cases: biochemical
LTK = LTK (Homo sapiens, UniProt P29376); details: competition binding; read-out: %Ctrl @ 1000nM
CAMK2G = CAMK2G (Homo sapiens, UniProt Q13555); details: read-out: %Ctrl @ 1000nM
TAOK3 = TAOK3 (Homo sapiens, UniProt Q9H2K8); details: read-out: %Ctrl @ 1000nM
EPHA3 = EPHA3 (Homo sapiens, UniProt P29320); details: read-out: %Ctrl @ 1000nM
Chain of EPHA3 (P29320 whole entry): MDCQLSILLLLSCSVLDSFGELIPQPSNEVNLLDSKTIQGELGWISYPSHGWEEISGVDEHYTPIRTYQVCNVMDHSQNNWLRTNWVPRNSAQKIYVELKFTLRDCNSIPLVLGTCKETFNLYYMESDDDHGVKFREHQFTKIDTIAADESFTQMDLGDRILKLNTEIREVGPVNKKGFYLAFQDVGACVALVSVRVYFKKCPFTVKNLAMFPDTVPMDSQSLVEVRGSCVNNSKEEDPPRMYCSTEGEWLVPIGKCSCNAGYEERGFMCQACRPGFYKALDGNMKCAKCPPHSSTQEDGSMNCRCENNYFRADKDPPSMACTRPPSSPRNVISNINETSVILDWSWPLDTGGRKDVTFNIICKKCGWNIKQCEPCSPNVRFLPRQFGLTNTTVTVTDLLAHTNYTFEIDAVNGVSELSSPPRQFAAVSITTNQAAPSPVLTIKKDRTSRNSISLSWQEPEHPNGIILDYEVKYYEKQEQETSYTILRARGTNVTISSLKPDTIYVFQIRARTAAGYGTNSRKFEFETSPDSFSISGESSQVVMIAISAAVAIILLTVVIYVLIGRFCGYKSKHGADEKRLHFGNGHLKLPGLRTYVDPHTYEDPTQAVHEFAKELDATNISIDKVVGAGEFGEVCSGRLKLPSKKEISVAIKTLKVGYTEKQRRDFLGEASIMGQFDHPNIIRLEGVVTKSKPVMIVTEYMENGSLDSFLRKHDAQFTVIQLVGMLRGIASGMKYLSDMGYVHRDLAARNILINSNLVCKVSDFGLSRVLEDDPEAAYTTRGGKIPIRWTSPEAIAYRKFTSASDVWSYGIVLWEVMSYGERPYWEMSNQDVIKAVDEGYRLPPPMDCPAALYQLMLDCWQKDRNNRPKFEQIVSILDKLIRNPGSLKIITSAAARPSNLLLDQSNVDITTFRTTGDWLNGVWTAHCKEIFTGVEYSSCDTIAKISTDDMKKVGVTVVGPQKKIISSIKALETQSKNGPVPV

RIPK1 = RIPK1 (Homo sapiens, UniProt Q13546); details: read-out: %Ctrl @ 1000nM
Chain of RIPK1 (Q13546 whole entry): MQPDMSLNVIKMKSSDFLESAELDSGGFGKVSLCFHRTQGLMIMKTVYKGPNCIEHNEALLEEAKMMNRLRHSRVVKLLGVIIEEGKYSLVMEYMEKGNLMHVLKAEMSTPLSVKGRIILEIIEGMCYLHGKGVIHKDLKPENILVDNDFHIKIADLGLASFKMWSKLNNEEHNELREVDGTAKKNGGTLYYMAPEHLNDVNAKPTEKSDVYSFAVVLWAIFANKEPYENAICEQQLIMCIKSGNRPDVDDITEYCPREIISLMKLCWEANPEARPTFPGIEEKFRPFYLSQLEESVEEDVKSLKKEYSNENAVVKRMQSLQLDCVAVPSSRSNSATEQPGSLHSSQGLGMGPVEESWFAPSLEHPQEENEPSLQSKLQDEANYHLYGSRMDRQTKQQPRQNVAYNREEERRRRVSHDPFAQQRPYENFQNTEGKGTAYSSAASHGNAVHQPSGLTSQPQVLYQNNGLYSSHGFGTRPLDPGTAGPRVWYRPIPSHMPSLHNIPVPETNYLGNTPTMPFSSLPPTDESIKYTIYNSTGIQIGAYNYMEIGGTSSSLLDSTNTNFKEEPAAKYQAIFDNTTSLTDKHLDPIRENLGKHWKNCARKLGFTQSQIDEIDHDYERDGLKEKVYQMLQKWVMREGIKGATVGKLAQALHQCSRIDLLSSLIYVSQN

PRKCI = PRKCI (Homo sapiens, UniProt P41743); details: read-out: %Ctrl @ 1000nM
MET = MET (Homo sapiens, UniProt P08581); details: read-out: %Ctrl @ 1000nM
ACVRL1 = ACVRL1 (Homo sapiens, UniProt P37023); details: read-out: %Ctrl @ 1000nM
AURKB = AURKB (Homo sapiens, UniProt Q96GD4); details: read-out: %Ctrl @ 1000nM
Chain of AURKB (Q96GD4 whole entry): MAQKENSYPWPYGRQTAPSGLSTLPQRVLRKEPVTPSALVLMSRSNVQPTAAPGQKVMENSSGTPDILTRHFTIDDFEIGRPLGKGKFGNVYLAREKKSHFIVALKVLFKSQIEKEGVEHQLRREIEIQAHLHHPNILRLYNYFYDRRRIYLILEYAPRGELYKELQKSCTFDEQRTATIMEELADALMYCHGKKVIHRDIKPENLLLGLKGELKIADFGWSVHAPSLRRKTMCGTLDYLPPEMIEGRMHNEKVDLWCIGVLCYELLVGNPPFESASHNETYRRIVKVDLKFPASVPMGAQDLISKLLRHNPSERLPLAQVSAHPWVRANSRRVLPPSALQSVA

BRSK2 = BRSK2 (Homo sapiens, UniProt Q8IWQ3); details: read-out: %Ctrl @ 1000nM
EPHA7 = EPHA7 (Homo sapiens, UniProt Q15375); details: read-out: %Ctrl @ 1000nM
AKT2 = AKT2 (Homo sapiens, UniProt P31751); details: read-out: %Ctrl @ 1000nM
Chain of AKT2 (P31751 whole entry): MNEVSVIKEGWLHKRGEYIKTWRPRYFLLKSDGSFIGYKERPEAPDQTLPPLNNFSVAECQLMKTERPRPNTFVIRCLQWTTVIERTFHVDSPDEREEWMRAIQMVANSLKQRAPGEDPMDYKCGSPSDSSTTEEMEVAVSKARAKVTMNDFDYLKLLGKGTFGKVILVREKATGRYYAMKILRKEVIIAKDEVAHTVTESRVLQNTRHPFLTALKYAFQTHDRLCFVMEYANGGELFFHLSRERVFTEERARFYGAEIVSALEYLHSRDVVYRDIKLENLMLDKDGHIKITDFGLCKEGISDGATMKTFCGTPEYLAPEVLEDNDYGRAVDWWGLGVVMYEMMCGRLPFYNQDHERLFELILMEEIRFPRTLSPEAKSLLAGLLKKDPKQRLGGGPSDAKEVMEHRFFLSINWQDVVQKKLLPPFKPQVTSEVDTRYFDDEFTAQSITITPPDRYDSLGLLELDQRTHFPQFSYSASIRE

TLK2 = TLK2 (Homo sapiens, UniProt Q86UE8); details: read-out: %Ctrl @ 1000nM
CAMKK2 = CAMKK2 (Homo sapiens, UniProt Q96RR4); details: read-out: %Ctrl @ 1000nM
PKAC-alpha = molecular target: T1, PKAC-alpha (Homo sapiens, UniProt P17612); details: read-out: %Ctrl @ 1000nM
T1 construct: gene PRKACA

MLCK = molecular target: T2, MLCK (Homo sapiens, UniProt Q32MK0); details: read-out: %Ctrl @ 1000nM
T2 construct: gene MYLK3
T2 sequence (Q32MK0 whole entry): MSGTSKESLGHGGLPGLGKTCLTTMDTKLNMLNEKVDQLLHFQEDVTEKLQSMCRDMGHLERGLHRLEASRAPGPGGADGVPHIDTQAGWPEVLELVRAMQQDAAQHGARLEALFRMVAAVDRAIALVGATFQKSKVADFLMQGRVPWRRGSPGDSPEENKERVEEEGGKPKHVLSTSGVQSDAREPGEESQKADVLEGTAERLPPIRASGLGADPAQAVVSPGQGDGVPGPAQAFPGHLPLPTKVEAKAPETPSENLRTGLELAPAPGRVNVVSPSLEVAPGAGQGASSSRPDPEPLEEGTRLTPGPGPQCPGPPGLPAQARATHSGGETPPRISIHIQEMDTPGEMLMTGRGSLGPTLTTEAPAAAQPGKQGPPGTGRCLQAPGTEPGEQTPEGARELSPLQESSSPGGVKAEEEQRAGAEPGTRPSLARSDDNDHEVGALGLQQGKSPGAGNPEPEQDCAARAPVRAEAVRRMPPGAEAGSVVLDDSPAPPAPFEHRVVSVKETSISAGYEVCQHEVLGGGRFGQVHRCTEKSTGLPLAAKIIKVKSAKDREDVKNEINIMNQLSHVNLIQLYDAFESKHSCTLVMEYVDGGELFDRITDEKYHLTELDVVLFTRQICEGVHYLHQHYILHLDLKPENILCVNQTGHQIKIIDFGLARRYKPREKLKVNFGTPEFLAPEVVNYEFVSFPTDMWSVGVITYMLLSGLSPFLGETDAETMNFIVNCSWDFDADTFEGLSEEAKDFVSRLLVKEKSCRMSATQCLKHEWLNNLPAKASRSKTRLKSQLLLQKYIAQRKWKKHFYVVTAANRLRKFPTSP

AMPK-alpha2 = molecular target: T3, AMPK-alpha2 (Homo sapiens, UniProt P54646); details: read-out: %Ctrl @ 1000nM
T3 construct: gene PRKAA2

CDKL2 = CDKL2 (Homo sapiens, UniProt Q92772); details: read-out: %Ctrl @ 1000nM
LKB1 = molecular target: T4, LKB1 (Homo sapiens, UniProt Q15831); details: read-out: %Ctrl @ 1000nM
T4 construct: gene STK11

PYK2 = molecular target: T5, PYK2 (Homo sapiens, UniProt Q14289); details: read-out: %Ctrl @ 1000nM
T5 construct: gene PTK2B

LYN = LYN (Homo sapiens, UniProt P07948); details: read-out: %Ctrl @ 1000nM
RIPK4 = RIPK4 (Homo sapiens, UniProt P57078); details: read-out: %Ctrl @ 1000nM
Chain of RIPK4 (P57078 whole entry): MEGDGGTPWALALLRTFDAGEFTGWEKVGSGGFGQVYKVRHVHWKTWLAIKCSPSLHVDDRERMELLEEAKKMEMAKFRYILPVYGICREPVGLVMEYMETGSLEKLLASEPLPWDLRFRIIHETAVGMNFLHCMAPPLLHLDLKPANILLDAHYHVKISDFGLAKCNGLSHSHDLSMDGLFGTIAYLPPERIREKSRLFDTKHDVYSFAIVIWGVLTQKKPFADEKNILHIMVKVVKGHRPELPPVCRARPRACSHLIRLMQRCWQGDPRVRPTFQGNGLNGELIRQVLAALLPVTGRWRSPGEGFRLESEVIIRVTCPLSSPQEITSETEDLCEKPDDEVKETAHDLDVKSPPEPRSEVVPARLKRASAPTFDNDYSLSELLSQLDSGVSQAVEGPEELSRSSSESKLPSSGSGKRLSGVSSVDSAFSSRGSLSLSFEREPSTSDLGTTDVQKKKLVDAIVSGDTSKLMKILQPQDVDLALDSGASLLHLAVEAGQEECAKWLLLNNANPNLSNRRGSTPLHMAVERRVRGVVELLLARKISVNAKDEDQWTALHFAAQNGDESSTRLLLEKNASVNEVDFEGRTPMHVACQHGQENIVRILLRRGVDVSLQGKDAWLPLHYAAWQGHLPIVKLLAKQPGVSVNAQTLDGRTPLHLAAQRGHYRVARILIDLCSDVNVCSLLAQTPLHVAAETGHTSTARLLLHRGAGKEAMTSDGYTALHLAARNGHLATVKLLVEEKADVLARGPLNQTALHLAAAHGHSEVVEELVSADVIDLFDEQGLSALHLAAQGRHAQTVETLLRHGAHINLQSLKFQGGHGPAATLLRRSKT

NEK1 = NEK1 (Homo sapiens, UniProt Q96PY6); details: read-out: %Ctrl @ 1000nM
PDGFRB = PDGFRB (Homo sapiens, UniProt P09619); details: read-out: %Ctrl @ 1000nM
TNK1 = TNK1 (Homo sapiens, UniProt Q13470); details: read-out: %Ctrl @ 1000nM
GCN2(Kin.Dom.2,S808G) = molecular target: T6, GCN2(Kin.Dom.2,S808G) (Homo sapiens, UniProt Q9P2K8, S808G); details: read-out: %Ctrl @ 1000nM
T6 construct: gene EIF2AK4

NDR1 = molecular target: T7, NDR1 (Homo sapiens, UniProt Q15208); details: read-out: %Ctrl @ 1000nM
T7 construct: gene STK38
T7 sequence (Q15208 whole entry): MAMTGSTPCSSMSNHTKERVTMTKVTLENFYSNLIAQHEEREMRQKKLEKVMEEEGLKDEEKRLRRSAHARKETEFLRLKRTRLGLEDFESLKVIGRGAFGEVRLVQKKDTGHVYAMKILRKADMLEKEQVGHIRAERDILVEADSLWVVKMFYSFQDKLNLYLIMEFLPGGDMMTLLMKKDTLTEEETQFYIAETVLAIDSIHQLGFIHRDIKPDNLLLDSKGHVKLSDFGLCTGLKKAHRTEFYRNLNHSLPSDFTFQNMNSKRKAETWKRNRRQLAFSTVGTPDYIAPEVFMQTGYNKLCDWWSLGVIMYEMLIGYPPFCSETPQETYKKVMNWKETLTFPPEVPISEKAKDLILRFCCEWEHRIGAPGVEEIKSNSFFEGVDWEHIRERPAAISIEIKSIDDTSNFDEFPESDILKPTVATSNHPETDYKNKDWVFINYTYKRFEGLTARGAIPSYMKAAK

CTK = molecular target: T8, CTK (Homo sapiens, UniProt P42679); details: read-out: %Ctrl @ 1000nM
T8 construct: gene MATK

MRCKB = molecular target: T9, MRCKB (Homo sapiens, UniProt Q9Y5S2); details: read-out: %Ctrl @ 1000nM
T9 construct: gene CDC42BPB

AAK1 = AAK1 (Homo sapiens, UniProt Q2M2I8); details: read-out: %Ctrl @ 1000nM
KIT(V559D) = KIT(V559D) (Homo sapiens, UniProt P10721, V559D); details: read-out: %Ctrl @ 1000nM
BTK = BTK (Homo sapiens, UniProt Q06187); details: read-out: %Ctrl @ 1000nM
[1] = molecular target: ABL1(E255K)-phosphorylated (Homo sapiens, UniProt P00519, E255K); details: read-out: %Ctrl @ 1000nM
FLT3(ITD,F691L) = FLT3(ITD,F691L) (Homo sapiens, UniProt P36888, F691L/ITD); details: read-out: %Ctrl @ 1000nM
Chain of FLT3(ITD,F691L) (P36888 564-993 F691L): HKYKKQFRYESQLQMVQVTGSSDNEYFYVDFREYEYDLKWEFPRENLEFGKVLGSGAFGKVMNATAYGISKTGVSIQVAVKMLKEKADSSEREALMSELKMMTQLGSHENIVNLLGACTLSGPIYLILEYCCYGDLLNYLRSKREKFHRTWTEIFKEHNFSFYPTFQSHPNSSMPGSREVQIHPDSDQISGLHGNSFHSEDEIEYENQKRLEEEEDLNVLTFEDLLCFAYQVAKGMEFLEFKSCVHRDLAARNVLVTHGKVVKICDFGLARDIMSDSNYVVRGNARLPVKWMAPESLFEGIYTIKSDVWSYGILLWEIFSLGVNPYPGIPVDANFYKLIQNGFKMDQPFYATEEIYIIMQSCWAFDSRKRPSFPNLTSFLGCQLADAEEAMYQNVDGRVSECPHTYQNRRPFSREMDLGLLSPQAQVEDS

[2] = molecular target: ABL1(M351T)-phosphorylated (Homo sapiens, UniProt P00519, M351T); details: read-out: %Ctrl @ 1000nM

remaining binding at 1 µM (LTK): 73%
remaining activity at 1 µM (CAMK2G): 63%
remaining activity at 1 µM (TAOK3): 100%
remaining activity at 1 µM (EPHA3): 55%
remaining activity at 1 µM (RIPK1): 98%
remaining activity at 1 µM (PRKCI): 72%
remaining activity at 1 µM (MET): 100%
remaining activity at 1 µM (ACVRL1): 76%
remaining activity at 1 µM (AURKB): 98%
remaining activity at 1 µM (BRSK2): 94%
remaining activity at 1 µM (EPHA7): 62%
remaining activity at 1 µM (AKT2): 100%
remaining activity at 1 µM (TLK2): 98%
remaining activity at 1 µM (CAMKK2): 72%
remaining activity at 1 µM (PKAC-alpha): 87%
remaining activity at 1 µM (MLCK): 92%
remaining activity at 1 µM (AMPK-alpha2): 100%
remaining activity at 1 µM (CDKL2): 93%
remaining activity at 1 µM (LKB1): 77%
remaining activity at 1 µM (PYK2): 93%
remaining activity at 1 µM (LYN): 100%
remaining activity at 1 µM (RIPK4): 100%
remaining activity at 1 µM (NEK1): 100%
remaining activity at 1 µM (PDGFRB): 82%
remaining activity at 1 µM (TNK1): 79%
remaining activity at 1 µM (GCN2(Kin.Dom.2,S808G)): 100%
remaining activity at 1 µM (NDR1): 98%
remaining activity at 1 µM (CTK): 100%
remaining activity at 1 µM (MRCKB): 94%
remaining activity at 1 µM (AAK1): 77%
remaining activity at 1 µM (KIT(V559D)): 80%
remaining activity at 1 µM (BTK): 100%
remaining activity at 1 µM [1]: 56%
remaining activity at 1 µM (FLT3(ITD,F691L)): 100%
remaining activity at 1 µM [2]: 72%
SMILES: Cc1cn(-c2cc(NC(=O)c3ccc4c(c3)CN(c3cncnc3)C[C@@H]4C)cc(C(F)(F)F)c2)cn1 [Compound 6j]
